Reference: US6191152A, “2-(1,2,4-triazole-1-yl)-1,3,4-thiadiazole derivatives having an effect on the C.N.S. and the heart” (EGIS Gyogyszergyar Rt., priority 1997, dated 2001)

Columns and labels:
[1] = tested on: isolated rat thoracic aorta; assay: Vascular relaxing effect in potassium chloride (20 mM KCl) contracted isolated rat thoracic aorta; parameters: species or system rat (male SPRD); details: for IC50: Rattus norvegicus, 20 mM KCl contracted strips, 37° C., read-out: IC50 (vascular relaxation in isolated rat thoracic aorta)
Experimental: 1. Measurement of Vascular Relaxing Effect in Potassium Chloride Contracted Isolated rat Thoracic Aorta
Experiments were performed in thoracic aortas obtained from male SPRD rats weighing 250 to 300 g. Thoracic aortas excised from rats killed by decapitation and ensanguination were cleaned of fat and connective tissue, then were immediately placed in carbogenized TYRODE solution. The composition of the normal TYRODE solution was the following (in mM): NaCl 114.7, KCl 3.7, CaCl2 3.6, MgCl2 0.49, NaHCO3 19.9, NaH2 PO4 0.32, glucose 5.1.
Two mm wide and 20 to 25 mm long strips were cut from the aortas along a helical line at 45° angle. Aortic strips were mounted vertically between two cotton threads in 10 ml organ chambers, the lower threads were attached to the organ chambers and the upper threads were connected to isometric force transducers. The strips were incubated under 1 g resting tension at 37° C. for 120 minutes, then resting vascular tone was recorded. Then the strips were contracted with a TYRODE solution containing 20 mM KCl. The composition of the high potassium TYRODE solution was the following (in mM): NaCl 94.7, KCl 20, CaCl2 3.6, MgCl2 0.49, NaHCO3 19.9, NaH2 PO4 0.32, glucose 5.1.
When stable vascular tone developed, increasing doses of the test substance were added to the organ bath. The effects of each test substance were measured at least in 3 tissue preparations obtained from different animals. Decreases in vascular tension caused by the test substances were expressed as percentage changes and IC50 for each tissue preparation was determined by sigmoid (in few casses linear) curve fitting.
For comparison, cromakalim i.e. (±)-trans-3,4-dihydro-3-hydroxy-2,2-dimethyl-4-(2-oxo-1-pyrrolidinyl)-2H-1-benzopyrane-6-carbonitrile was used.

[2] = tested on: isolated guinea-pig papillary muscle; assay: Effective refractory period (ERP) prolonging effect in isolated guinea-pig right ventricular papillary muscle, in vitro; parameters: species or system guinea-pig (male); details: for ERP change at 10^-4 M / ERP change at 10^-5 M: 30 minutes incubation, mean of at least four preparations
Text: 2. Measurement of Effective Refracter Period in Guinea-pig Right Ventricular Papillary Muscle, in Vitro.
Effective refracter period (ERP) is regarded to be the shortest time interval between two identical electrical stimuli when both can evoke a twitch in the papillary muscle. A second stimulus applied earlier than the ERP is not effective. Compounds prolonging ERP can have antiarrhythmic effect. This method is useful primarily for testing antiarrhythmic agents belonging to class III according to the Vaughan Williams classification /Bexton, R. S. and Camm. A., J. Pharmacol. Ther., 17, 315 (1982)/.
Experiments were performed in a Schuler-type organ bath system having 4 channels. Male guinea-pigs weighing 450 to 750 g were killed by a blow on the head and ensanguinated. The heart was rapidly excised and papillary muscles of appropriate size (lower than 1 mm in diameter) were dissected from the right ventricle. The preparations were vertically mounted in 20 ml organ chambers containing Krebs solution bubbled with carbogen (consisting of 95% of O2 and 5% of CO2) and maintained at 35° C. The upper end of the muscles was connected with cotton threads to force-displacement transducers coupled to a recorder for measuring isometric tension via DC-bridge amplifiers. The lower end of the papillary muscles was pinned to the organ chamber with a silver hook that was also used as a stimulating electrode. The other electrode was immersed into the organ bath and had no direct contact with the preparation. The composition of the Krebs solution was the following (in mm): NaCl 118, KCl 4.8, NaHCO3 27.2, glucose 11.1, MgSO4 1.2, KH2 PO4 1, CaCl2 2.6, pH=7.4.
The preparations were equilibrated for 120 minutes under a resting tension of 1 g. During equilibration they were electrically stimulated at a rate of 2 Hz with 1 msec rectangular pulses that were above the diastolic threshold voltage by 10%. ERP was determined using a standard extrastimulus technique. Extrastimuli (S2) were interjected between the normal stimuli (S1) in such a way that the S1 -S2 interval was initially below the refracter period of the tissue. The S1 -S2 interval was then widened by increments of 1 msec until the extrastimulus (S2) evoked twitch of the papillary muscle. The force of the twitch caused by S2 is larger than those caused by normal (S1) stimuli (postextrasystolic potentiation). The equipment measured the shortest S1 -S2 interval at which the extrastimulus evoked a twitch that was larger than the force of control twitches by 25%. This interval is equivalent with the ERP.
The experimental protocol was as follows:
Two control ERP measurements were performed 20 minutes apart, then appropriate amount of the test substance was added to produce 10^-4 M concentration in the bathing solution. After 30 minutes incubation with the test substance, two ERP measurements were performed 30 minutes apart.
When the test substance increased ERP at 10^-4 M by 40 msec or more, its effect on ERP was tested also at 10^-5 M.
The effect of the test substances was characterized by the difference between the first treated and the second control measurements. Individual data obtained from four different preparations, at least, were averaged. The reference substance used was sotalol i.e. N-[4-/1-hydroxy-2-(1-methylethylamino)ethyl/plenyl]methane sulfonamide.

IC50 [1] [µM] | SMILES | vascular relaxation of isolated rat thoracic aorta (in words) [1] | ERP prolongation (in words) [2] | ERP change at 10^-4 M [2] [msec] | ERP change at 10^-5 M [2] [msec]
0.13 | COc1ccc(CCN(C)CCCOc2ccccc2-c2nnc(-n3nc(N4CCCCC4)nc3N)s2)cc1OC [Example 99, 2-(5-Amino-3-piperidino-1H-1,2,4-triazole-1-yl)-5-{2-[3-methyl-3-/ 2-(3,4-dimethoxyphenylethyl)amino/-propoxy]phenyl}-1,3,4-thiadiazole] | – | – | – | –
0.075 | COc1ccc(CCN(C)CCCOc2ccccc2-c2nnc(-n3nc(SC(C)C)nc3N)s2)cc1OC [Example 101, 2-/5-Amino-3-(1-methylethylthio)-1H-1,2,4-triazole-1-yl/-5-{2-[3-methyl-3-/2-(3,4-dimethoxyphenylethyl)amino/propoxy]-phenyl}-1,3,4-thiadiazole] | relaxed isolated rat thoracic aorta more effectively than the K^+ channel opener and Ca^2+ channel blocker reference substances | – | – | –
> 1 | COc1ccc(CCN(C)CCCOc2cccc(-c3nnc(-n4nc(SC)nc4N)s3)c2)cc1OC [Example 105, 2-(5-Amino-3-methylthio-1H-1,2,4-triazole-1-yl)-5-{3-[3-methyl-3-/ 2-(3,4-dimethoxyphenylethyl)amino/propoxy]phenyl}-1,3,4-thiadiazole] | – | – | 62 | 14
> 10 | COc1ccc(CCN(C)CCCOc2ccc(-c3nnc(-n4nc(SC)nc4N)s3)cc2)cc1OC [Example 108, 2-(5-Amino-3-methylthio-1H-1,2,4-triazole-1-yl)-5-{4-[3-methyl-3-/ 2-(3,4-dimethoxyphenylethyl)amino/propoxy]phenyl}-1,3,4-thiadiazole] | – | – | 66 | 29

Further lines, the molecule ahead of its results:

SMILES | IC50 [1] [µM] | vascular relaxation of isolated rat thoracic aorta (in words) [1] | ERP prolongation (in words) [2] | ERP change at 10^-4 M [2] [msec] | ERP change at 10^-5 M [2] [msec]
CC1(C)Oc2ccc(C#N)cc2[C@@H](N2CCCC2=O)[C@@H]1O (racemic) [cromakalim, (±)-trans-3,4-dihydro-3-hydroxy-2,2-dimethyl-4-(2-oxo-1-pyrrolidinyl)-2H-1-benzopyrane-6-carbonitrile, reference compound] | 0.13 | – | – | – | –
CN(C)CCCOc1ccccc1-c1nnc(-n2nc(N(C)C)nc2N)s1 [Example 29, 2-(5-Amino-3-dimethylamino-1H-1,2,4-triazole-1-yl)-5-/ 2-(3-dimethylaminopropoxy)phenyl/-1,3,4-thiadiazole] | 0.071 | relaxed isolated rat thoracic aorta more effectively than the K^+ channel opener and Ca^2+ channel blocker reference substances | – | – | –
CC(C)Sc1nc(N)n(-c2nnc(-c3ccccc3OCCCN(C)C)s2)n1 [Example 30, 2-/5-Amino-3-(2-methylethylthio)-1H-1,2,4-triazole-1-yl/-5-/ 2-(3-dimethylaminopropoxy)phenyl/-1,3,4-thiadiazole] | 0.068 | relaxed isolated rat thoracic aorta more effectively than the K^+ channel opener and Ca^2+ channel blocker reference substances | – | – | –
CN(C)CCCOc1ccccc1-c1nnc(-n2nc(N3CCCCC3)nc2N)s1 [Example 32, 2-(5-Amino-3-piperidino-1H-1,2,4-triazole-1-yl)-5-/ 2-(3-dimethylaminopropoxy)phenyl/-1,3,4-thiadiazole] | – | – | remarkable also at 10^-5 M | 155 | 158
CCN(CC)CCOc1ccc(-c2nnc(-n3nc(SC)nc3N)s2)cc1 [Example 36, 2-(5-Amino-3-methylthio-1H-1,2,4-triazole-1-yl)-5-/ 4-(2-diethylaminoethoxy)phenyl/-1,3,4-thiadiazole] | – | – | – | 53 | 15
CSc1nc(N)n(-c2nnc(-c3ccccc3OCCCN3CCCC3)s2)n1 [Example 43, 2-(5-Amino-3-methylthio-1H-1,2,4-triazole-1-yl)-5-/ 2-(3-pyrrolidinopropoxy)phenyl/-1,3,4-thiadiazole] | – | – | – | 66 | 34
CN(C)CCCOc1ccc(-c2nnc(-n3nc(N4CCN(C)CC4)nc3N)s2)cc1 [Example 47, 2-/5-Amino-3-(4-methylpiperazine-1-yl)-1H-1,2,4-triazole-1-yl/-5-/ 4-(3-dimethylaminopropoxy)phenyl/-1,3,4-thiadiazole] | – | – | – | 123 | 2
C=CCN(CC=C)c1nc(N)n(-c2nnc(-c3ccccc3OCCCN(C)C)s2)n1 [Example 49, 2-(5-Amino-3-diallylamino-1H-1,2,4-triazole-1-yl)-5-/ 2-(3-dimethylaminopropoxy)phenyl/-1,3,4-thiadiazole] | 0.17 | – | – | – | –
CC(C)NCC(O)c1ccc(NS(C)(=O)=O)cc1 (centres unmarked) [sotalol, N-[4-/1-hydroxy-2-(1-methylethylamino)ethyl/plenyl]methane sulfonamide, reference compound] | – | – | – | 47 | 26
